The values that follow come from patent publication US8889676B2, “3-ureidoisoquinolin-8-yl derivatives” (Actelion Pharmaceuticals Ltd., priority 2011, dated 2014).

Broadly, the MIC is the least concentration at which growth counts as inhibited.

Converted amounts (≈) assume the structure as drawn.

In this test the test system is S. pneumoniae ATCC 49619. In words: Minimal inhibitory concentration (MIC) by broth microdilution (CLSI M7-A7). The class given is cell-based, Streptococcus pneumoniae. The following applies: Streptococcus pneumoniae, ATCC49619; cation-adjusted Mueller Hinton Broth supplemented with 3% (v/v) lysed horse blood; microdilution method. As to the method:
Minimal inhibitory concentrations (MICs; mg/l) were determined in cation-adjusted MuellerHinton Broth (supplemented with 3% (v/v) lysed horse blood for testing Streptococcus pneumoniae) by a microdilution method following the description given in “Methods for Dilution Antimicrobial Susceptibility Tests for Bacteria that Grow Aerobically”, Approved standard, 7th ed., a Clinical and Laboratory Standards Institute (CLSI) Document M7-A7, Wayne, Pa., USA, 2006.
`CCNC(=O)Nc1cc2c(-c3ccncc3)ccc(CNC(=O)OCC(O)CO)c2cn1.Cl` (racemic) [Example 103, (±)-[3-(3-ethyl-ureido)-5-pyridin-4-yl-isoquinolin-8-ylmethyl]-carbamic acid 2,3-dihydroxy-propyl ester hydrochloride] displayed an MIC of 4 µg/mL.
For `C#CC(C)OC(=O)NCc1ccc(-c2ccncc2)c2cc(NC(=O)NCC)ncc12` (racemic) [Example 108, (±)-[3-(3-ethyl-ureido)-5-pyridin-4-yl-isoquinolin-8-ylmethyl]-carbamic acid 1-methyl-prop-2-ynyl ester] the value was 0.25 µg/mL (≈ 0.599 µM); for `C#CCC(=O)NCc1cccc2cc(NC(=O)NCC)ncc12` [Example 1, but-3-ynoic acid [3-(3-ethyl-ureido)-isoquinolin-8-ylmethyl]-amide], 2 µg/mL (≈ 6.44 µM).
For `CCNC(=O)Nc1cc2cccc(CNC(=O)c3ccncc3)c2cn1` [Example 2, N-[3-(3-ethyl-ureido)-isoquinolin-8-ylmethyl]-isonicotinamide] the value was 2 µg/mL (≈ 5.72 µM); for `CCNC(=O)Nc1cc2cccc(CNC(C)=O)c2cn1` [Example 3, N-[3-(3-ethyl-ureido)-isoquinolin-8-ylmethyl]-acetamide], 4 µg/mL (≈ 14 µM).
Take `CCNC(=O)Nc1cc2cccc(CNC(=O)c3ccccc3)c2cn1` [Example 4, N-[3-(3-ethyl-ureido)-isoquinolin-8-ylmethyl]-benzamide]: the MIC was 2 µg/mL (≈ 5.74 µM).
In turn, `CCNC(=O)Nc1cc2cccc(CNC(=O)CC#N)c2cn1` [Example 5, 2-cyano-N-[3-(3-ethyl-ureido)-isoquinolin-8-ylmethyl]-acetamide] registered an MIC of 4 µg/mL (≈ 12.8 µM).
The same measure for `CCNC(=O)Nc1cc2cccc(CNC(=O)C3CCCCC3)c2cn1` [Example 6, cyclohexanecarboxylic acid [3-(3-ethyl-ureido)-isoquinolin-8-ylmethyl]-amide]: 4 µg/mL (≈ 11.3 µM); for `CCNC(=O)Nc1cc2cccc(CNC(=O)CC3CC3)c2cn1` [Example 7, 2-cyclopropyl-N-[3-(3-ethyl-ureido)-isoquinolin-8-ylmethyl]-acetamide]: 2 µg/mL (≈ 6.13 µM); for `CCNC(=O)Nc1cc2cccc(CNC(=O)CNC(C)=O)c2cn1` [Example 8, 2-acetylamino-N-[3-(3-ethyl-ureido)-isoquinolin-8-ylmethyl]-acetamide]: 8 µg/mL (≈ 23.3 µM).
The same measure for `C#CC(=O)NCc1cccc2cc(NC(=O)NCC)ncc12` [Example 9, propynoic acid [3-(3-ethyl-ureido)-isoquinolin-8-ylmethyl]-amide]: 2 µg/mL (≈ 6.75 µM); for `CCNC(=O)Nc1cc2cccc(CNC(=O)c3cccnc3)c2cn1` [Example 10, N-[3-(3-ethyl-ureido)-isoquinolin-8-ylmethyl]-nicotinamide]: 4 µg/mL (≈ 11.4 µM).
`CCNC(=O)Nc1cc2cccc(CNC(=O)c3ccccn3)c2cn1` [Example 11, pyridine-2-carboxylic acid [3-(3-ethyl-ureido)-isoquinolin-8-ylmethyl]-amide] gave an MIC of 2 µg/mL (≈ 5.72 µM).
For `CCNC(=O)Nc1cc2cccc(CNC(=O)Cc3ccccc3)c2cn1` [Example 12, N-[3-(3-ethyl-ureido)-isoquinolin-8-ylmethyl]-2-phenyl-acetamide] the value was 1 µg/mL (≈ 2.76 µM); for `CCNC(=O)Nc1cc2cccc(CNC(=O)C3CC3)c2cn1` [Example 13, cyclopropanecarboxylic acid [3-(3-ethyl-ureido)-isoquinolin-8-ylmethyl]-amide], 2 µg/mL (≈ 6.4 µM).
As for `CCNC(=O)Nc1cc2cccc(CNC(=O)C(C)(C)C)c2cn1` [Example 14, N-[3-(3-ethyl-ureido)-isoquinolin-8-ylmethyl]-2,2-dimethyl-propionamide], the MIC stood at 4 µg/mL (≈ 12.2 µM).
`CCNC(=O)Nc1cc2cccc(CNC(=O)COC)c2cn1` [Example 15, N-[3-(3-ethyl-ureido)-isoquinolin-8-ylmethyl]-2-methoxy-acetamide] showed an MIC of 4 µg/mL (≈ 12.6 µM).
For `CCNC(=O)Nc1cc2cccc(CNC(=O)c3ncc[nH]3)c2cn1` [Example 16, 1H-imidazole-2-carboxylic acid [3-(3-ethyl-ureido)-isoquinolin-8-ylmethyl]-amide] the value was 4 µg/mL (≈ 11.8 µM); for `C#CCCC(=O)NCc1cccc2cc(NC(=O)NCC)ncc12` [Example 17, pent-4-ynoic acid [3-(3-ethyl-ureido)-isoquinolin-8-ylmethyl]-amide], 8 µg/mL (≈ 24.7 µM).
For `CCNC(=O)Nc1cc2cccc(CNC(=O)C(C)C)c2cn1` [Example 18, N-[3-(3-ethyl-ureido)-isoquinolin-8-ylmethyl]-isobutyramide] the value was 4 µg/mL (≈ 12.7 µM); for `CCNC(=O)Nc1cc2cccc(CNC(=O)CN(C)C)c2cn1` [Example 19, 2-dimethylamino-N-[3-(3-ethyl-ureido)-isoquinolin-8-ylmethyl]-acetamide], 8 µg/mL (≈ 24.3 µM); for `CCNC(=O)Nc1cc2cccc(CNC(=O)c3cn[nH]n3)c2cn1` [Example 20, 2H-[1,2,3]triazole-4-carboxylic acid [3-(3-ethyl-ureido)-isoquinolin-8-ylmethyl]-amide], 1 µg/mL (≈ 2.95 µM).
For `CCNC(=O)Nc1cc2cccc(CNC(=O)CCC(N)=O)c2cn1` [Example 21, N-[3-(3-ethyl-ureido)-isoquinolin-8-ylmethyl]-succinamide] the value was 8 µg/mL (≈ 23.3 µM); for `CCNC(=O)Nc1cc2cccc(CNC(=O)c3cncn3C)c2cn1` [Example 22, 3-methyl-3H-imidazole-4-carboxylic acid [3-(3-ethyl-ureido)-isoquinolin-8-ylmethyl]-amide], 4 µg/mL (≈ 11.4 µM); for `CCNC(=O)Nc1cc2c(-c3ccncc3)ccc(CNC(=O)c3cccnc3)c2cn1` [Example 23, N-[3-(3-ethyl-ureido)-5-pyridin-4-yl-isoquinolin-8-ylmethyl]-nicotinamide], 1 µg/mL (≈ 2.34 µM).
Molecule `CCNC(=O)Nc1cc2cccc(CNC(=O)OCC)c2cn1.Cl` [Example 24, [3-(3-ethyl-ureido)-isoquinolin-8-ylmethyl]-carbamic acid ethyl ester hydrochloride] came in with an MIC of 4 µg/mL.
For `CCNC(=O)Nc1cc2cccc(CNC(=O)OCc3ccncc3)c2cn1.Cl` [Example 25, [3-(3-ethyl-ureido)-isoquinolin-8-ylmethyl]-carbamic acid pyridin-4-ylmethyl ester hydrochloride], it took 2 µg/mL to inhibit growth (MIC). Against the preceding molecule, the MIC is about 2-fold lower.
`CCNC(=O)Nc1cc2cccc(CNC(=O)OCc3cncnc3)c2cn1.Cl` [Example 26, [3-(3-ethyl-ureido)-isoquinolin-8-ylmethyl]-carbamic acid pyrimidin-5-ylmethyl ester hydrochloride] came in with a minimum inhibitory concentration (MIC) of 4 µg/mL. Compared with the last molecule, the MIC is about 2-fold higher.
Molecule `CCNC(=O)Nc1cc2cccc(CNC(=O)OCCF)c2cn1.Cl` [Example 27, [3-(3-ethyl-ureido)-isoquinolin-8-ylmethyl]-carbamic acid 2-fluoro-ethyl ester hydrochloride] displayed an MIC of 4 µg/mL.
On to `CCNC(=O)Nc1cc2cccc(CNC(=O)OCC3CC3)c2cn1.Cl` [Example 28, [3-(3-ethyl-ureido)-isoquinolin-8-ylmethyl]-carbamic acid cyclopropylmethyl ester hydrochloride], for which it took 4 µg/mL to inhibit growth (MIC).
`CCNC(=O)Nc1cc2cccc(CNC(=O)OCc3ccncn3)c2cn1.Cl` [Example 29, [3-(3-ethyl-ureido)-isoquinolin-8-ylmethyl]-carbamic acid pyrimidin-4-ylmethyl ester hydrochloride] had an MIC of 4 µg/mL.
Take `CCNC(=O)Nc1cc2cccc(CNC(=O)OC(C)C)c2cn1.Cl` [Example 30, [3-(3-ethyl-ureido)-isoquinolin-8-ylmethyl]-carbamic acid isopropyl ester hydrochloride]: inhibition of growth (MIC) required 4 µg/mL.
The same measure for `C#CCOC(=O)NCc1cccc2cc(NC(=O)NCC)ncc12.Cl` [Example 31, [3-(3-ethyl-ureido)-isoquinolin-8-ylmethyl]-carbamic acid prop-2-ynyl ester hydrochloride]: 2 µg/mL; for `CCNC(=O)Nc1cc2cccc(CNC(=O)OCCC#N)c2cn1.Cl` [Example 32, [3-(3-ethyl-ureido)-isoquinolin-8-ylmethyl]-carbamic acid 2-cyano-ethyl ester hydrochloride]: 4 µg/mL.
In the case of `CCNC(=O)Nc1cc2cccc(CNC(=O)OCc3cccnc3)c2cn1.Cl` [Example 33, [3-(3-ethyl-ureido)-isoquinolin-8-ylmethyl]-carbamic acid pyridin-3-ylmethyl ester hydrochloride], the MIC worked out at 4 µg/mL.
`CCNC(=O)Nc1cc2cccc(CNC(=O)OCc3ccccn3)c2cn1.Cl` [Example 34, [3-(3-ethyl-ureido)-isoquinolin-8-ylmethyl]-carbamic acid pyridin-2-ylmethyl ester hydrochloride] had an MIC of 4 µg/mL.
Take `CCNC(=O)Nc1cc2cccc(CNC(=O)OCc3ccn(C)n3)c2cn1.Cl` [Example 35, [3-(3-ethyl-ureido)-isoquinolin-8-ylmethyl]-carbamic acid (1-methyl-1H-pyrazol-3-yl)methyl ester hydrochloride]: the minimal inhibitory concentration (MIC) amounted to 4 µg/mL.
The molecule `CCNC(=O)Nc1cc2cccc(CNC(=O)OCc3ccccc3)c2cn1.Cl` [Example 36, [3-(3-ethyl-ureido)-isoquinolin-8-ylmethyl]-carbamic acid benzyl ester hydrochloride] showed an MIC of 4 µg/mL.
As for `CCNC(=O)Nc1cc2cccc(CNC(=O)OCCOC)c2cn1.Cl` [Example 37, [3-(3-ethyl-ureido)-isoquinolin-8-ylmethyl]-carbamic acid 2-methoxy-ethyl ester hydrochloride], inhibition of growth (MIC) required 4 µg/mL.
The molecule `CCNC(=O)Nc1cc2cccc(CNC(=O)OCc3cncn3C)c2cn1.Cl` [Example 38, [3-(3-ethyl-ureido)-isoquinolin-8-ylmethyl]-carbamic acid 3-methyl-3H-imidazol-4-ylmethyl ester hydrochloride] yielded an MIC of 8 µg/mL.
